Read-outs that look alike come from different tables or passages of the source.
Columns and labels:
[1] = system: mdr1a (P-gP) knockout (−/−) mouse; details: cited from earlier work; for sensitivity to fetal cleft palate: same doses as knockout mice
[2] = in vivo; cited from earlier work
[3] = system: adult subjects with chronic pain; assay: Human study of the effects of oral quercetin (Q) and analgesics on sedation, concentration and pain; type: in vivo
Protocol: An empiric trial on the effects of oral quercetin (Q) on sedation, concentration, and pain was conducted. Inclusion criteria included ongoing pain of at least 4/10 on the Likert scale, poor tolerance of current analgesic regimen (complaints of sedation, dizziness, inability to focus), and willingness to complete daily diaries.
Approximately 16 adult subjects with chronic pain were screened and 9 subjects were admitted to the trial. Their pain disorders included peripheral neuropathy (2), facial pain (2), cervical radiculopathy (2), lumbar spine disease (3). Their pre-existing medications included short acting opioids (Vicodin TID, Tramadol 50 mg Q4-6), high dose, long acting opioids (OxyContin 240 mg, Methadone 400 mg), Gabapentin (900 mg and 2700 mg), Ativan, Flexeril, and Soma 350 mg. Seven of the subjects were using at least two analgesic medications. Two subjects were using no current medications because of prior histories of sedation and dizziness during opioid trials.
Q (Sigma) 500 mg per gel capsule was compounded and supplied to all subjects by overnight mail. Subjects were instructed to complete daily diaries for 7 days and continue their baseline medications and regular activities. On approximately the 7th day, they were asked to begin twice daily dosing of 2 Q (1000 mg) capsules (total daily dose of Q, 2000 mg). Diaries were completed for 7 days. Individual diaries included rating sleep interference, focus, pain now, and worst pain over the prior 24 hours. Subjects were instructed that concomitant pain medications should not be altered without speaking with the investigator. Subjects were advised that they would be contacted by telephone every day or every other day to assess progress in the trial and any side effects associated with the addition of Q. At the end of the trial, patients were interviewed. They were asked to rate their satisfaction with the study medication (−2−+2) and its ability to modulate the CNS effects of their pain medications.

[4] = after 7 days of co-administration of Q (2000 mg daily, oral) and analgesics, FIG. 16
[5] = scale of −2 to 2, patients on opiate or MSD and Q

| SMILES | sensitivity to fetal cleft palate ([1]; heterozygous (+/−) mice) | sensitivity to fetal cleft palate ([1]; homozygous (+/+) mice) | incidence of fetal cleft palate ([1]; mdr1a knockout mice) [%] | serum half-life [2] [h] | mean ratings for concentration improved [3, 4] | mean ratings for sleep improved [3, 4] | mean ratings for worst pain improved [3, 4] | mean ratings for pain now decreased ([3]; after 7 days of co-administration of Q (2000 mg daily, oral) and analgesics, all patients taking analgesic medications and Q, FIG. 16) | worst pain in the last 24 hrs (NPRS) ([3]; all patients after taking Q, 1 no pain, 10 worst, FIG. 7) | concentration rating (short term memory, focus, wakefulness) ([3]; all patients after taking Q, 1 perfect concentration, 10 worst, FIG. 6) | pain at the time the patients were called (pain now) ([3]; all patients after taking Q, FIG. 8) | sleep rating ([3]; all patients after taking Q, scale to 10 as worst, FIG. 5) | global assessment on the scale of −2 to 2 ([3]; all patients on opiate or MSD (membrane stabilizing drug) and modulator (Q), FIG. 15) | central withdrawal ([3]; opioid users taking Q) | patients reporting 2 in global assessment [3, 5] | patients reporting −2 in global assessment [3, 5] | pain on the scale from 1-10 (worst pain in last 24 hrs, pain at time of call) ([3]; two patients not on baseline meds, poor tolerance of systemic medications, FIG. 13 and 14) |
| --- | --- | --- | --- | --- | --- | --- | --- | --- | --- | --- | --- | --- | --- | --- | --- | --- | --- |
| CC[C@H](C)[C@H]1O[C@]2(C=C[C@@H]1C)C[C@@H]1C[C@@H](C/C=C(\C)[C@@H](O[C@H]3C[C@H](OC)[C@@H](O[C@H]4C[C@H](OC)[C@@H](O)[C@H](C)O4)[C@H](C)O3)[C@@H](C)/C=C/C=C3\CO[C@@H]4[C@H](O)C(C)=C[C@@H](C(=O)O1)[C@]34O)O2 [avermectin] | less sensitive | insensitive | 100 | – | – | – | – | – | – | – | – | – | – | – | – | – | – |
| O=c1c(O)c(-c2ccc(O)c(O)c2)oc2cc(O)cc(O)c12 [Q, quercetin] | – | – | – | 19 to 25 | over 60% | more than 25% | more than 25% | more than 70% | overall improvement | overall improvement | overall improvement | overall improvement | overall improvement | noted in 3 | three | none | brought the pain down |

Source: patent US20060111308A1, “Methods and compositions for therapeutic treatment” (priority 2004, published 2006)
